Reference: PMC7531004, “Discovery of gramicidin A analogues with altered activities by multidimensional screening of a one-bead-one-compound library” (Nature Communications, 2020)
Where a SMILES comes first, the peptide text is derived from it. [ ]: non-standard residue; d: D form. The star is where a group is joined. NHCH2CH2OH = OCCN*; For = O=C*

What was measured:
[1] = cell viability/%
In short: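 P388 cells at 1 × 10^4 cells/mL (final) were exposed to library peptides (stocks diluted 250-fold in RPMI1640/10% FBS) for 92 h at 37 °C, 5% CO2. Viable cells were counted by WST-1/1-methoxy PMS (4 h), absorbance 415 nm, and expressed as cell viability (%).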

[2] = H+/Na+ transport assay of bead-derived peptides (one-point); assay type: biochemical; design: key: relative activity; mean of two control wells = 1.00; details: bead-derived peptide solution, EYPC/EYPG LUVs;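 also: relative to parent gramicidin A activity set to 1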
In short: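 One-point screen: peptide + pyranine-loaded LUVs, 30 min RT with vortexing, 96-well. Read-out is fluorescence intensity scaled as 100 × (Ix – I0)/(Imax – I0). Imax from Triton X-100, I0 from untreated vesicles, and the mean of the two control wells is set to 1.00.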

[3] = test system: Streptococcus pyogenes SSI-9; assay: Antibacterial activity assay of bead-derived peptides (three concentrations); assay type: cell-based; design: key: +++: inhibition by the 640-fold diluted peptide solution; ++: inhibition by the 160-fold diluted solution; +: inhibition by the 40-fold diluted solution; -: no inhibition; details: S. pyogenes, bead-derived peptide solution, three concentrations
In short: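 Library peptide stock applied undiluted, 4-fold and 16-fold diluted in DMSO to S. pyogenes SSI-9 (2 × 10^5 CFU) in cation-adjusted Mueller Hinton broth with 5% laked horse blood. After 18 h at 37 °C, growth judged by visible cell precipitation.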

SMILES	viability [1] [%]	H+/Na+ transport activity normalized against the value of 1 (1.00) [2]	antibacterial activity [3]
CC(C)C[C@@H](NC(=O)[C@H](C)NC(=O)CNC(=O)[C@@H](NC=O)C(C)C)C(=O)N[C@@H](C)C(=O)N[C@@H](C(=O)N[C@H](C(=O)N[C@@H](C(=O)N[C@@H](Cc1c[nH]c2ccccc12)C(=O)N[C@@H](C(=O)N[C@@H](Cc1c[nH]c2ccccc12)C(=O)N[C@H](CC(C)C)C(=O)N[C@@H](Cc1c[nH]c2ccccc12)C(=O)N[C@H](CC(C)C)C(=O)N[C@@H](Cc1c[nH]c2ccccc12)C(=O)NCCO)[C@H](C)O)C(C)C)C(C)C)[C@H](C)O [compound 1592] (For-VGA[dL]A[dT]V[dV]W[dT]W[dL]W[dL]W-NHCH2CH2OH)	100	1.03	-
CNC(=O)C[C@@H](NC(=O)[C@@H](NC(=O)[C@@H](CC(C)C)NC(=O)[C@H](C)NC(=O)[C@@H](CC(C)C)NC(=O)[C@H](C)NC(=O)CNC(=O)[C@@H](NC=O)C(C)C)C(C)C)C(=O)N[C@@H](Cc1c[nH]c2ccccc12)C(=O)N[C@H](CC(C)C)C(=O)N[C@@H](Cc1c[nH]c2ccccc12)C(=O)N[C@H](CC(C)C)C(=O)N[C@@H](Cc1c[nH]c2ccccc12)C(=O)N[C@@H](C(=O)N[C@@H](Cc1c[nH]c2ccccc12)C(=O)NCCO)C(C)C [compound 4186] (For-VGA[dL]A[dL]V[dD](NHMe)W[dL]W[dL]W[dV]W-NHCH2CH2OH)	98.7	1.44	-
CNC(=O)C[C@@H](NC(=O)[C@@H](NC(=O)[C@H](NC(=O)[C@H](C)NC(=O)[C@@H](CC(C)C)NC(=O)[C@H](C)NC(=O)CNC(=O)[C@@H](NC=O)C(C)C)C(C)C)C(C)C)C(=O)N[C@@H](Cc1c[nH]c2ccccc12)C(=O)N[C@H](CC(C)C)C(=O)N[C@@H](Cc1c[nH]c2ccccc12)C(=O)N[C@H](CC(C)C)C(=O)N[C@@H](Cc1c[nH]c2ccccc12)C(=O)N[C@@H](C(=O)N[C@@H](Cc1c[nH]c2ccccc12)C(=O)NCCO)C(C)C [compound 7204] (For-VGA[dL]A[dV]V[dD](NHMe)W[dL]W[dL]W[dV]W-NHCH2CH2OH)	100	1.17	-
CC(C)C[C@@H](NC(=O)[C@@H](NC(=O)[C@H](NC(=O)[C@H](C)NC(=O)[C@H](NC(=O)[C@H](C)NC(=O)CNC(=O)[C@@H](NC=O)C(C)C)C(C)C)C(C)C)C(C)C)C(=O)N[C@@H](Cc1c[nH]c2ccccc12)C(=O)N[C@@H](C(=O)N[C@@H](Cc1c[nH]c2ccccc12)C(=O)N[C@@H](C(=O)N[C@@H](Cc1c[nH]c2ccccc12)C(=O)N[C@@H](C(=O)N[C@@H](Cc1c[nH]c2ccccc12)C(=O)NCCO)C(C)C)C(C)C)C(C)C [compound 885] (For-VGA[dV]A[dV]V[dL]W[dV]W[dV]W[dV]W-NHCH2CH2OH)	93.4	1.03	-
CNC(=O)C[C@@H](NC(=O)[C@H](Cc1c[nH]c2ccccc12)NC(=O)[C@@H](CC(C)C)NC(=O)[C@@H](NC(=O)[C@@H](CC(C)C)NC(=O)[C@H](C)NC(=O)[C@H](NC(=O)[C@H](C)NC(=O)CNC(=O)[C@@H](NC=O)C(C)C)[C@H](C)O)C(C)C)C(=O)N[C@@H](Cc1c[nH]c2ccccc12)C(=O)N[C@H](CC(C)C)C(=O)N[C@@H](Cc1c[nH]c2ccccc12)C(=O)N[C@H](CC(C)C)C(=O)N[C@@H](Cc1c[nH]c2ccccc12)C(=O)NCCO [compound 5284] (For-VGA[dT]A[dL]V[dL]W[dD](NHMe)W[dL]W[dL]W-NHCH2CH2OH)	100	1.02	-
CC(C)C[C@@H](NC(=O)[C@H](Cc1c[nH]c2ccccc12)NC(=O)[C@@H](CC(C)C)NC(=O)[C@@H](NC(=O)[C@H](NC(=O)[C@H](C)NC(=O)[C@H](NC(=O)[C@H](C)NC(=O)CNC(=O)[C@@H](NC=O)C(C)C)[C@H](C)O)C(C)C)C(C)C)C(=O)N[C@@H](Cc1c[nH]c2ccccc12)C(=O)N[C@@H](C(=O)N[C@@H](Cc1c[nH]c2ccccc12)C(=O)N[C@@H](C(=O)N[C@@H](Cc1c[nH]c2ccccc12)C(=O)NCCO)C(C)C)C(C)C [compound 5563] (For-VGA[dT]A[dV]V[dL]W[dL]W[dV]W[dV]W-NHCH2CH2OH)	100	1.08	-
CC(C)C[C@@H](NC(=O)[C@H](Cc1c[nH]c2ccccc12)NC(=O)[C@H](NC(=O)[C@H](Cc1c[nH]c2ccccc12)NC(=O)[C@H](NC(=O)[C@H](Cc1c[nH]c2ccccc12)NC(=O)[C@H](NC(=O)[C@@H](NC(=O)[C@H](NC(=O)[C@H](C)NC(=O)[C@H](NC(=O)[C@H](C)NC(=O)CNC(=O)[C@@H](NC=O)C(C)C)[C@H](C)O)C(C)C)C(C)C)C(C)C)C(C)C)C(C)C)C(=O)N[C@@H](Cc1c[nH]c2ccccc12)C(=O)NCCO [compound 6606] (For-VGA[dT]A[dV]V[dV]W[dV]W[dV]W[dL]W-NHCH2CH2OH)	100	1.03	-
CC(C)C[C@@H](NC(=O)[C@H](C)NC(=O)[C@H](NC(=O)[C@H](C)NC(=O)CNC(=O)[C@@H](NC=O)C(C)C)[C@H](C)O)C(=O)N[C@H](C(=O)N[C@H](CC(C)C)C(=O)N[C@@H](Cc1c[nH]c2ccccc12)C(=O)N[C@@H](C(=O)N[C@@H](Cc1c[nH]c2ccccc12)C(=O)N[C@H](CC(C)C)C(=O)N[C@@H](Cc1c[nH]c2ccccc12)C(=O)N[C@@H](C(=O)N[C@@H](Cc1c[nH]c2ccccc12)C(=O)NCCO)C(C)C)C(C)C)C(C)C [compound 102] (For-VGA[dT]A[dL]V[dL]W[dV]W[dL]W[dV]W-NHCH2CH2OH)	100	1.09	-
CC(C)C[C@@H](NC(=O)[C@H](Cc1c[nH]c2ccccc12)NC(=O)[C@H](NC(=O)[C@@H](NC(=O)[C@H](NC(=O)[C@H](C)NC(=O)[C@H](NC(=O)[C@H](C)NC(=O)CNC(=O)[C@@H](NC=O)C(C)C)C(C)C)[C@H](C)O)C(C)C)C(C)C)C(=O)N[C@@H](Cc1c[nH]c2ccccc12)C(=O)N[C@@H](C(=O)N[C@@H](Cc1c[nH]c2ccccc12)C(=O)N[C@@H](C(=O)N[C@@H](Cc1c[nH]c2ccccc12)C(=O)NCCO)C(C)C)C(C)C [compound 9055] (For-VGA[dV]A[dT]V[dV]W[dL]W[dV]W[dV]W-NHCH2CH2OH)	83.5	1.01	-
CC(C)C[C@@H](NC(=O)[C@H](C)NC(=O)[C@H](NC(=O)[C@H](C)NC(=O)CNC(=O)[C@@H](NC=O)C(C)C)C(C)C)C(=O)N[C@H](C(=O)N[C@H](CC(C)C)C(=O)N[C@@H](Cc1c[nH]c2ccccc12)C(=O)N[C@H](CC(C)C)C(=O)N[C@@H](Cc1c[nH]c2ccccc12)C(=O)N[C@@H](C(=O)N[C@@H](Cc1c[nH]c2ccccc12)C(=O)N[C@H](CC(C)C)C(=O)N[C@@H](Cc1c[nH]c2ccccc12)C(=O)NCCO)C(C)C)C(C)C [compound 3255] (For-VGA[dV]A[dL]V[dL]W[dL]W[dV]W[dL]W-NHCH2CH2OH)	4.6	1.13	+
